Data from patent US20200016130A1, “Methods of Diagnosing and Treating Small Cell Lung Cancer Using Polo-Like Kinase 1 (PLK1) Inhibitors” (Emory University, priority 2017, published 2020).
Entries after “also recorded” stand apart in the source; their conditions may differ. Like-named read-outs stand apart in the source and are kept apart here.

Key:
[1] = tested on: H292 NSCLC cell line; assay: In vitro cytotoxicity before and after shRNA knockdown of TP53 in H292; assay type: cell-based; conditions: compared to parental and vector-treated controls
Description: (§1) Whether depletion of endogenous wild type P53 and enforced expression of active P53 mutant would alter cancer cell line sensitivity to PLK1 inhibitor was evaluated. Due to low transfection efficiency in SCLC cell lines, established NSCLC cell line models were relied on to interrogate PLK1 activity following TP53 gene modulation. In vitro cytotoxicity of PLK1 inhibitors were compared before and after shRNA knockdown of TP53 in H292 and A549. In these cell lines with wild type TP53, there was increased sensitivity to PLK1 inhibitors following shRNA knockdown in comparison to parent cells and vector treated controls (FIG. 4). We also evaluated PLK1 inhibitor activity in p53−/− H1299 cells following enforced expression of active mutant forms of TP53. There was reduced sensitivity of the mutant-bearing cell lines compared to parental p53−/− cells (FIG. 5).

[2] = tested on: panel of SCLC cell lines (DMS53, DMS114, DMS153, H146, H209, H69, H128, H187, H526); assay: Agnostic cytotoxicity screening of targeted agents in panel of SCLC cell lines (MTS assay); conditions: for IC50 concentration / activity against SCLC cell lines (in words) / In vitro activity versus a priori threshold (submicromolar in vitro cytotoxicity): panel of SCLC cell lines; for In vitro activity versus a priori threshold (submicromolar in vitro cytotoxicity): MTS assay
Description: (§2) An agnostic screening approach was employed by evaluating in vitro cytotoxicity of biologically targeted agents that have not been previously evaluated in SCLC clinical trials. […] The cytotoxicity of 10 different targeted agents was determined in a panel of genomically annotated SCLC cell lines by low throughput MTS assay. Inhibitors of the bromodomain, HSP90, CDK2, MEK, PIK3CA and PLK1 were tested in a panel of SCLC cell lines (DMS53, DMS114, DMS153, H146, H209, H69, H128, H187, H526) well characterized for genetic alterations and expression profiles.

[3] = tested on: TKO-005 PDX of platinum sensitive SCLC; assay: Patient derived xenograft (PDX) model of platinum sensitive SCLC (TKO-005); assay type: in vivo
Excerpt: PDX models generated from SCLC patients enrolled in a recently completed translational phase II clinical trial of arsenic trioxide were employed. […] The activity of rigosertib was compared to that of cisplatin (expected to be active in a PDX from a platinum sensitive tumor) and arsenic trioxide (expected to have no efficacy based on the clinical trial outcome for the patient whose tumor biopsy was used to generate the PDX).

[4] = tested on: A549 NSCLC cell line; assay: In vitro cytotoxicity before and after shRNA knockdown of TP53 in A549; assay type: cell-based; conditions: compared to parental and vector-treated controls
Description: as §1

[5] = tested on: panel of SCLC cell lines (DMS53, DMS114, DMS153, H146, H209, H69, H128, H187, H526)
Description: as §2

[6] = tested on: H526 SCLC cell line xenograft; assay: Subcutaneous xenograft model of H526 SCLC cell line; assay type: in vivo, athymic (nu/nu) mice; conditions: volasertib 30 mg/kg i.p. weekly; p<0.003
Description: To establish whether the promising in vitro activity of these PLK1 inhibitors translates into antitumor efficacy in vivo. The activity of PLK1 inhibitors were compared to that of approved drugs currently employed in the management of SCLC. The in vivo efficacy of volasertib (30 mg/kg i.p. weekly), cisplatin (3 mg/kg i.p. weekly) and irinotecan (25 mg/kg i.p. weekly) was tested, using a subcutaneous xenograft model of the H526 cell line, the most sensitive cell line from our in vitro screen (FIG. 2). Tumor xenografts were established in 6-week old athymic (nu/nu) mice using H526 cells (1-2×10^7) suspended in serum-free medium mixed with Matrigel™ solution and injected subcutaneously into the flank region of nude mice. Treatment began in groups of tumor-bearing mice (approximately 6 mice per group) matched for body weight and tumor volume when the tumors achieved a volume of approximately 100 mm^3.

[7] = tested on: DMS53 SCLC cell line; assay: In vitro cytotoxicity, low throughput MTS assay, DMS53; assay type: cell-based; conditions: Homo sapiens, DMS-53, TP53 c.722C > T, read-out: IC50 (nM), cell line sensitivity to volasertib
Description: as §2

[8] = tested on: DMS153 SCLC cell line; assay: In vitro cytotoxicity, low throughput MTS assay, DMS153; assay type: cell-based; conditions: Homo sapiens, DMS-153, TP53 c.463A > C, read-out: IC50 (nM), cell line sensitivity to volasertib
Description: as §2

[9] = tested on: H69 SCLC cell line; assay: In vitro cytotoxicity, low throughput MTS assay, H69; assay type: cell-based; conditions: TP53 c.511G > T, concurrent hemizygous deletion, read-out: IC50 (nM), cell line sensitivity to volasertib
Description: (§3) The cytotoxicity of 10 different targeted agents was determined in a panel of genomically annotated SCLC cell lines by low throughput MTS assay. Inhibitors of the bromodomain, HSP90, CDK2, MEK, PIK3CA and PLK1 were tested in a panel of SCLC cell lines (DMS53, DMS114, DMS153, H146, H209, H69, H128, H187, H526) well characterized for genetic alterations and expression profiles.

[10] = tested on: H209 SCLC cell line; assay: In vitro cytotoxicity, low throughput MTS assay, H209; assay type: cell-based; conditions: Homo sapiens, NCI-H209, TP53 c.673-2A > T, read-out: IC50 (nM), cell line sensitivity to volasertib
Description: as §3

[11] = tested on: DMS114 SCLC cell line; assay: In vitro cytotoxicity, low throughput MTS assay, DMS114; assay type: cell-based; conditions: Homo sapiens, DMS-114, TP53 c.637C > T, concurrent hemizygous deletion, read-out: IC50 (nM), cell line sensitivity to volasertib
Description: as §3

[12] = tested on: H146 SCLC cell line; assay: In vitro cytotoxicity, low throughput MTS assay, H146; assay type: cell-based; conditions: Homo sapiens, NCI-H146, TP53 wild type, read-out: IC50 (nM), cell line sensitivity to volasertib
Description: as §2

[13] = tested on: H187 SCLC cell line; assay: In vitro cytotoxicity, low throughput MTS assay, H187; assay type: cell-based
Description: as §2

| SMILES | Sensitivity to PLK1 inhibitor after shRNA knockdown of TP53 [1] | IC50 concentration / activity against SCLC cell lines (in words) [2] | In vitro activity versus a priori threshold (submicromolar in vitro cytotoxicity) [2] | Tumor growth inhibition compared to vehicle [3] | Sensitivity to PLK1 inhibitor after shRNA knockdown of TP53 [4] | In vitro activity versus a priori threshold (submicromolar in vitro cytotoxicity) [5] | further results |
| --- | --- | --- | --- | --- | --- | --- | --- |
| COc1cc(OC)c(/C=C/S(=O)(=O)Cc2ccc(OC)c(NCC(=O)O)c2)c(OC)c1 [rigosertib] | sensitized | picomolar IC50 concentration; also recorded: low nanomolar to picomolar activity | met the a priori threshold of activity | significant tumor growth inhibition comparable to cisplatin | sensitized | – | Tumor weight compared to vehicle [3]: reduced tumor weight |
| N.N.[Cl][Pt][Cl] [cisplatin] | – | – | – | comparable efficacy | – | – | – |
| CCNC(=O)c1noc(-c2cc(C(C)C)c(O)cc2O)c1-c1ccc(CN2CCOCC2)cc1 [AUY922] | – | – | – | – | – | met the a priori threshold of activity | – |
| CCc1cnn2c(NCc3ccc[n+]([O-])c3)cc(N3CCCC[C@H]3CCO)nc12 [SCH727965] | – | – | – | – | – | met the a priori threshold of activity | – |
| CC[C@@H]1C(=O)N(C)c2cnc(Nc3ccc(C(=O)N[C@H]4CC[C@H](N5CCN(CC6CC6)CC5)CC4)cc3OC)nc2N1C(C)C [volasertib] | sensitized | picomolar IC50 concentration; also recorded: low nanomolar to picomolar activity | met the a priori threshold of activity | – | sensitized | – | Tumor growth inhibition relative to control [6]: significant tumor growth inhibition; IC50 [7]: 0.118 nM; IC50 [8]: 0.672 nM; IC50 [9]: 0.018 nM; IC50 [10]: 0.057 nM; IC50 [11]: 0.092 nM; IC50 [12]: 0.163 nM; IC50 ([2]; read-out: mean IC50 concentration, less sensitive SCLC cell lines): 0.25 nM; IC50 ([2]; read-out: mean IC50 concentration, more sensitive SCLC cell lines): 0.03 nM; Surviving viable cells ([13]; BI6727 concentration of 0.01 nM and higher): no surviving viable cells; IC50 ([13]; Homo sapiens, NCI-H187, TP53 c.722C > G, concurrent hemizygous deletion, read-out: IC50 (nM), cell line sensitivity to volasertib): 0.004 nM |
